Columns and labels:
[1] = Atogepant-itraconazole interaction study: safety and tolerability; format: in vivo, human
From the text: The primary objective of this study was to assess the effects of multiple dose itraconazole on the pharmacokinetics of a single dose of atogepant. The primary endpoints were PK parameters of atogepant derived from plasma concentrations. The secondary objectives of the study were to assess the safety and tolerability of atogepant and itraconazole given alone and in combination, and to establish the correlation between concentrations of atogepant in dried blood sample (DBS) (obtained via finger stick) and plasma. The secondary endpoints included AEs, clinical laboratory parameters, vital signs, ECG, and physical examination, and correlation of concentrations of atogepant in DBS and plasma. Subjects who satisfied the inclusion and exclusion criteria were assigned to a single fixed-treatment sequence in which they received Treatment A followed by Treatment B; there was a 7-day washout period between treatments. • Treatment A: Single oral 60 mg dose of atogepant (tablet) under fasted conditions on Day 1 • Treatment B • Days 8-14: Itraconazole 200 mg (tablet) orally once daily under fed conditions. • Day 15: Itraconazole 200 mg coadministered with atogepant 60 mg (tablet) under fasted conditions. • Days 16 to 17: Itraconazole 200 mg (tablet) once daily under fed conditions.

[2] = Atogepant-quinidine gluconate interaction study: safety; format: in vivo, human; details: atogepant 60 mg alone or with quinidine gluconate
From the text: Atogepant PK parameters calculated were peak plasma concentration (Cmax); time to Cmax (tmax); and area under plasma concentration—time curve from time 0 to time t (AUC0-t) and infinity (AUC0-∞). […] Safety assessments included clinical laboratory values, vital signs, electrocardiograms, and […] adverse events (TEAEs).

[3] = system: patients with episodic migraine; test: Study 1 (NCT03777059): preventive treatment of episodic migraine, efficacy; format: in vivo, human
Description: The studies enrolled patients with at least a 1-year history of migraine with or without aura, according to the International Classification of Headache Disorders (ICHD-3) diagnostic criteria. In Study 1 (NCT03777059), 910 patients were randomized 1:1:1:1 to receive atogepant 10 mg (N=222), atogepant 30 mg (N=230), atogepant 60 mg (N=235), or placebo (N=223), once daily for 12 weeks. In Study 2 (NCT02848326), 652 patients were randomized 1:2:2:2 to receive atogepant 10 mg (N=94), atogepant 30 mg (N=185), atogepant 60 mg (N=187), or placebo (N=186), once daily for 12 weeks. In both studies, patients were allowed to use acute headache treatments (i.e., triptans, ergotamine derivatives, NSAIDs, acetaminophen, and opioids) as needed. The use of a concomitant medication that acts on the CGRP pathway was not permitted for either acute or preventive treatment of migraine. The studies excluded patients with myocardial infarction, stroke, or transient ischemic attacks within six months prior to screening. The primary efficacy endpoint was the change from baseline in mean monthly migraine days (MMD) across the 12-week treatment period. Secondary endpoints included the change from baseline in mean monthly headache days, the change from baseline in mean monthly acute medication use days, the proportion of patients achieving at least a 50% reduction from baseline in mean MMD (3-month average), the change from baseline in mean monthly Activity Impairment in Migraine-Diary (AIM-D) Performance of Daily Activities (PDA) domain scores, the change from baseline in mean monthly AIM-D Physical Impairment (PI) domain scores, across the 12 week treatment period, and the change from baseline at Week 12 for Migraine Specific Quality of Life Questionnaire version 2.1 (MSQ v2.1) Role Function-Restrictive (RFR) domain scores. The AIM-D evaluates difficulty with performance of daily activities (PDA domain) and physical impairment (PI domain) due to migraine, with scores ranging from 0 to 100. Higher scores indicate greater impact of migraine, and reductions from baseline indicate improvement. The MSQ v2.1 Role Function-Restrictive (RFR) domain score assesses how often migraine impacts function related to daily social and work-related activities over the past 4 weeks, with scores ranging from 0 to 100. Higher scores indicate lesser impact of migraine on daily activities, and increases from baseline indicate improvement.

[4] = biological target: OAT1 (Homo sapiens, UniProt Q4U2R8); test: Transporter substrate; format: in vitro ADME
[5] = biological target: OATP1B1 (Homo sapiens, UniProt Q9Y6L6); test: Transporter inhibition; format: in vitro ADME
[6] = biological target: CYP3A4 (Homo sapiens, UniProt P08684); test: Elimination by metabolism; format: in vitro ADME
[7] = Study 1, atogepant 10 mg once daily
[8] = Study 1, atogepant 30 mg once daily
[9] = Study 1, atogepant 60 mg once daily

CYP3A4, sequence (P08684 whole entry): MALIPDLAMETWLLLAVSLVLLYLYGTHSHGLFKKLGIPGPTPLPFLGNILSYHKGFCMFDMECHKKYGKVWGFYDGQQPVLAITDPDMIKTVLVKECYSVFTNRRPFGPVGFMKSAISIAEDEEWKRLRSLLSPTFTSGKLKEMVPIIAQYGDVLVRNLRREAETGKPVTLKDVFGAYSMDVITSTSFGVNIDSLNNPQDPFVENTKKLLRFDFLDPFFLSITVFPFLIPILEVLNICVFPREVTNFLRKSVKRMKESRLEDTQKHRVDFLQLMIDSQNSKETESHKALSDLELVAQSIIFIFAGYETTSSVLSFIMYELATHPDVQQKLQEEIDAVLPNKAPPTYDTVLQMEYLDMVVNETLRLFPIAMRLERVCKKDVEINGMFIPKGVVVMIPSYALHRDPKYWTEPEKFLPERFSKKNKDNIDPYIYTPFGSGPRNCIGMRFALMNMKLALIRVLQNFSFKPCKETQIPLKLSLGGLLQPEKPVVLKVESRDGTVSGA
OATP1B1, sequence (Q9Y6L6 whole entry): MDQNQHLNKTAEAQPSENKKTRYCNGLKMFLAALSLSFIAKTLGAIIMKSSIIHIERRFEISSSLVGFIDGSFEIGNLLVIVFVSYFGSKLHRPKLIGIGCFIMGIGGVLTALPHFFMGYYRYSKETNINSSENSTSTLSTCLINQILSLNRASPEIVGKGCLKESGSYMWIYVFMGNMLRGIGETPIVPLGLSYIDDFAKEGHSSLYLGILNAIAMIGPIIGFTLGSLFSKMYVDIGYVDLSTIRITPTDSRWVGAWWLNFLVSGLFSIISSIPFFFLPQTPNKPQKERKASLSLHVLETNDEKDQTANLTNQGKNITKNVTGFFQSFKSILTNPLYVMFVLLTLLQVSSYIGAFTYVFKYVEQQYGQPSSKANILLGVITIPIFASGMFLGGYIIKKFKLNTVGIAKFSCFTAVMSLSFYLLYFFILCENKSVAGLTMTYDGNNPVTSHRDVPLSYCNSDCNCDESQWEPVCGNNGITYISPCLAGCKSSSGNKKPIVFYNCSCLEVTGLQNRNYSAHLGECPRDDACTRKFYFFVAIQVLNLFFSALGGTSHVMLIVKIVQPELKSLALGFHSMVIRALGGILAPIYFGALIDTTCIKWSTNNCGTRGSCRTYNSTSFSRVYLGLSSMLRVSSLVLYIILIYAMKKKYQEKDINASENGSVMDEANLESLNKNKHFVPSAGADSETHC
OAT1, sequence (Q4U2R8 whole entry): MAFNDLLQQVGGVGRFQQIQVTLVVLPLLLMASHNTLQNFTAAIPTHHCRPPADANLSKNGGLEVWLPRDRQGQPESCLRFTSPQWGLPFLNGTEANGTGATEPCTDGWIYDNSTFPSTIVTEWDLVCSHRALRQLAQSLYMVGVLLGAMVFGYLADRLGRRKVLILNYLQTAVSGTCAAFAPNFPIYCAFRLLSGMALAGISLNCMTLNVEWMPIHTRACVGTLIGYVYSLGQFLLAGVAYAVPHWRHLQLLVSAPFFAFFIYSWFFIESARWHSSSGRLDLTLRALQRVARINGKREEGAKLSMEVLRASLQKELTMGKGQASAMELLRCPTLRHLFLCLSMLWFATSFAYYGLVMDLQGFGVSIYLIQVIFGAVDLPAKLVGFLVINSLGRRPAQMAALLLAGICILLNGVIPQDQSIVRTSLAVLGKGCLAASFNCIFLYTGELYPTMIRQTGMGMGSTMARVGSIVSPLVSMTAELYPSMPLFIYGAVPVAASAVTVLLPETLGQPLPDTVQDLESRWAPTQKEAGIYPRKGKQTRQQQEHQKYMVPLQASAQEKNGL

## C[C@@H]1[C@H](c2c(F)ccc(F)c2F)C[C@H](NC(=O)c2cnc3c(c2)C[C@@]2(C3)C(=O)Nc3ncccc32)C(=O)N1CC(F)(F)F [atogepant, (3′S)-N-[(3S,5S,6R)-6-methyl-2-oxo-1-(2,2,2-trifluoroethyl)-5-(2,3,6-trifluorophenyl)piperidin-3-yl]-2′-oxo-1′,2′,5,7-tetrahydrospiro[cyclopenta[b]pyridine-6,3′-pyrrolo[2,3-b]pyridine]-3-carboxamide]
[1]; atogepant alone
  subjects experiencing dizziness (TEAE): 2 subjects
[1]; each treatment (atogepant alone, itraconazole, combination)
  tolerability: well-tolerated
[2]
  safety and tolerability: safe and well tolerated
[3]; [7]
  AIM-D PDA Domain across 12 weeks, difference from placebo: −1.2
  AIM-D PDA Domain across 12 weeks, mean change from baseline: −7.3
  AIM-D PI Domain across 12 weeks, difference from placebo: −1.1
  AIM-D PI Domain across 12 weeks, mean change from baseline: −5.1
  MSQ v2.1 RFR Domain at week 12, difference from placebo: 9.9
  MSQ v2.1 RFR Domain at week 12, mean change from baseline: 30.4
  Monthly Acute Medication Use Days across 12 weeks, difference from placebo: −1.3
  Monthly Acute Medication Use Days across 12 weeks, mean change from baseline: −3.7
  Monthly Headache Days across 12 weeks, difference from placebo: −1.4
  Monthly Headache Days across 12 weeks, mean change from baseline: −3.9
  Monthly Migraine Days (MMD) across 12 weeks, difference from placebo: −1.2
  Monthly Migraine Days (MMD) across 12 weeks, mean change from baseline: −3.7
  ≥50% MMD Responders across 12 weeks, % Responders: 56%
  ≥50% MMD Responders across 12 weeks, difference from placebo: 27%
[3]; [8]
  AIM-D PDA Domain across 12 weeks, difference from placebo: −2.5
  AIM-D PDA Domain across 12 weeks, mean change from baseline: −8.6
  AIM-D PI Domain across 12 weeks, difference from placebo: −2.0
  AIM-D PI Domain across 12 weeks, mean change from baseline: −6.0
  MSQ v2.1 RFR Domain at week 12, difference from placebo: 10.1
  MSQ v2.1 RFR Domain at week 12, mean change from baseline: 30.5
  Monthly Acute Medication Use Days across 12 weeks, difference from placebo: −1.3
  Monthly Acute Medication Use Days across 12 weeks, mean change from baseline: −3.7
  Monthly Headache Days across 12 weeks, difference from placebo: −1.5
  Monthly Headache Days across 12 weeks, mean change from baseline: −4.0
  Monthly Migraine Days (MMD) across 12 weeks, difference from placebo: −1.4
  Monthly Migraine Days (MMD) across 12 weeks, mean change from baseline: −3.9
  ≥50% MMD Responders across 12 weeks, % Responders: 59%
  ≥50% MMD Responders across 12 weeks, difference from placebo: 30%
[3]; [9]
  AIM-D PDA Domain across 12 weeks, difference from placebo: −3.3
  AIM-D PDA Domain across 12 weeks, mean change from baseline: −9.4
  AIM-D PI Domain across 12 weeks, difference from placebo: −2.5
  AIM-D PI Domain across 12 weeks, mean change from baseline: −6.5
  MSQ v2.1 RFR Domain at week 12, difference from placebo: 10.8
  MSQ v2.1 RFR Domain at week 12, mean change from baseline: 31.3
  Monthly Acute Medication Use Days across 12 weeks, difference from placebo: −1.5
  Monthly Acute Medication Use Days across 12 weeks, mean change from baseline: −3.9
  Monthly Headache Days across 12 weeks, difference from placebo: −1.7
  Monthly Headache Days across 12 weeks, mean change from baseline: −4.2
  Monthly Migraine Days (MMD) across 12 weeks, difference from placebo: −1.7
  Monthly Migraine Days (MMD) across 12 weeks, mean change from baseline: −4.2
  ≥50% MMD Responders across 12 weeks, % Responders: 61%
  ≥50% MMD Responders across 12 weeks, difference from placebo: 32%
[4]
  substrate of OAT1: substrate
[5]
  inhibition of OATP1B1: weak inhibitor
[6]
  route of elimination (metabolism): primarily by CYP3A4

— patent US12350259B2, “Methods of treating migraine” (Allergan Pharmaceuticals International Limited, priority 2021, dated 2025)
